Source: patent US20090274676A1, “COMBINATION OF DEHYDROEPIANDROSTERONE OR DEHYDROEPIANDROSTERONE-SULFATE WITH A PDE-4 INHIBITOR FOR TREATMENT OF ASTHMA OR CHRONIC OBSTRUCTIVE PULMONARY DISEASE” (priority 2003, published 2009)
Like-named read-outs stand apart in the source and are kept apart here.

Legend:
[1] = Aerosolization of neat DHEA-S dihydrate, Acu-Breathe single-dose inhaler, fine particle fraction; type: physicochemical; conditions: neat powder, Acu-Breathe, 30 to 75 L/min, all flow rates
Source text: The single-dose Acu-Breathe device is used for evaluating DHEA-S.dihydrate. […] These blisters are actuated into the Andersen 8-stage cascade impactor at flow rates ranging from 30 to 75 L/min with a glass twin-impinger throat. Stages 1-5 of the Andersen impactor are rinsed together to obtain an estimate of the fine particle fraction. Pooling the drug collected from multiple stages into one assay make the method much more sensitive. […] Using a carrier with a larger particle size typically improves the aerosol properties of micronized drug substances.

[2] = Solid-state stability with and without lactose at 50° C. (HPLC, DHEA formation); type: physicochemical
Source text: These conditions were used to stress the formulation in order to predict its long-term stability results. […] The primary degradant is DHEA. […] The materials on accelerated storage become more cohesive with time as evidenced by clumping during sample weighing for chemical analysis. […] This is a considerable disadvantage since lactose is the most commonly used inhalation excipient for dry powder formulations. Continuing with the virtually anhydrous form would mean limiting formulations to neat powder or undertaking more comprehensive safety studies to use a novel excipient.

[3] = Physicochemical testing of DHEA-S dihydrate before and after micronization; conditions: for Water (% w/w): Karl Fischer
Method: Surface area is determined using five point BET analyses are performed with nitrogen as the adsorbing gas (P/Po=0.05 to 0.30) using a Micromeritics TriStar surface area analyzer. Particle size distributions are measured by laser diffraction using a Micromeritics Saturn Digisizer where the particles are suspended in mineral oil with sodium dioctyl sodium sulfosuccinate as a dispersing agent. Drug substance water content is measured by Karl Fischer titration (Schott Titroline KF). Pure water is used as the standard and all relative standard deviations for triplicates are less than 1%. Powder is added directly to the titration media.

[4] = test system: HT-29 SF cells; assay: Reversal of DHEA-mediated growth inhibition; type: cell-based, human; conditions: 25 μM DHEA, supplement in medium, 48 hours
[5] = test system: asthma; conditions: 657 patients with asthma, cited from earlier work
[6] = test system: adenosine; assay: In vivo effect on adenosine levels in rat tissues (HPLC of tissue adenosine)
Method: Folinic acid (50 mg/kg) was administered intraperitoneally once daily for fourteen days. […] Hearts were removed from animals and flash frozen in liquid nitrogen with 10 s of death. Liver and lungs were removed en bloc and flash frozen with 30 s of death. Brain tissue was subsequently dissected.

[7] = Solubility of DHEA-S; type: physicochemical; conditions: for Solubility: range of triplicates
Source text: Inhalation of pure water can produce a cough stimulus. […] The temperature effect is weaker at high NaCl concentrations.

[8] = test system: HT-29 SF cells; assay: DHEA effect on cell cycle (flow cytometry); type: cell-based, human
Method: Cells were plated at 10^5/60-mm dish in duplicate. […] Cultures were trypsinized following 0, 24, 48, or 74 hours and fixed and stained using a modification of a procedure of Bauer et al., Cancer Res. 46, 3173-3178 (1986). Briefly, cells were collected by centrifugation and resuspended in cold phosphate-buffered saline. Cells were fixed in 70% ethanol, washed, and resuspended in phosphate-buffered saline.
After 24, 48, and 72 hours, cells were harvested, fixed in ethanol, and stained with propidium iodide, and the DNA content/cell was determined by flow cytometric analysis. The percentage of cells in G1, S, and G2M phases was calculated using the Cellfit cell cycle analysis program. S phase is marked by a quadrangle for clarity. Representative histograms from duplicate determinations are shown. The experiment was repeated three times.

[9] = test system: HT-29 SF cells; assay: DHEA effect on cell growth (Coulter counter); type: cell-based, human; conditions: 12.5-200 μM, 24-72 hours
[10] = test system: HT-29 SF cells; assay: Reversal of DHEA effect on cell cycle (flow cytometry); type: cell-based, human; conditions: 25 μM DHEA, 48 hours
[11] = Short-term solution stability of DHEA-S nebulizer formulation; type: physicochemical; conditions: for Appearance of solution on storage: 10 mg/mL in 0.12% NaCl
Method: Aliquots of this solution are filled into clear glass vials and stored at RT (24-26° C.) and at 40° C. The samples are checked daily for DHEA-S content, DHEA content, and appearance. For each time point, duplicate samples are withdrawn and diluted from each vial. […] The study is stopped on day three. […] The solution should easily be stable for the day of reconstitution in a clinical trial. The following section describes the aerosol properties of this formulation.

[12] = HPLC analysis of drug degradation during jet milling; type: physicochemical; conditions: HPLC peak area vs unmilled standard
Method: Two vials (A; single-pass; 150 mg) and (B double-pass; 600 mg) of the micronized drug were available for determining drug degradation during jet milling micronization. […] The chromatographic peak area for the HPLC assay of the unmilled drug standard solution (10 mg/ml) gave a value of 23,427. […] The chromatographic peak areas for vials A and B were 11,979 and 11,677, respectively.

[13] = Folinic Acid 50 mg/kg intraperitoneally once daily 14 days, mean±SEM

**Q.** Which results are given for CC12CCC3C(CC=C4CC(OS(=O)(=O)[O-])CCC43C)C1CCC2=O.[Na+] (stereo not drawn) [DHEA-S Dihydrate]?
**A.** Fine particle fraction compared with virtually anhydrous material [1]: higher fine particle fraction; Colour after storage ([2]; 1 week at 50° C.): no change in color; DHEA % formed ([2]; 50° C., 1 week): 0.216%; DHEA % formed ([2]; 50° C., 3 weeks): 0.317%; DHEA % formed ([2]; 50° C., 4 weeks): 0.374%; DHEA % formed ([2]; Control, initial (Time=0)): 0.213%; DHEA % formed ([2]; Control, sealed, 25° C., 4 weeks): 0.218%; Water content, starting value ([2]; before storage): 8.8%; Water content after accelerated storage ([2]; one week at 50° C.): 8.66%; Particle size (D50%) ([3]; Bulk): 31 microns; Water (% w/w) ([3]; Bulk): 8.5 % w/w; Particle size (D50%) ([3]; Micronized): 3.7 microns; Water (% w/w) ([3]; Micronized): 8.4 % w/w; Surface area (m^2/g) ([3]; Micronized, five point BET): 4.9 m^2/g

**Q.** For CC(C)=CCC/C(C)=C/CC/C(C)=C/CC/C=C(\C)CC/C=C(\C)CCC=C(C)C [SQ, squalene], which “Reversal of DHEA-induced growth inhibition” value [4] is on record?
**A.** no such effect

**Q.** What does the source list for O=C(Nc1c(Cl)cncc1Cl)c1ccc(OC(F)F)c(OCC2CC2)c1 [Roflumilast]?
**A.** Reduction of number of exacerbations compared to placebo ([5]; higher dose): 48%; Reduction of number of exacerbations compared to placebo ([5]; lower dose): 8%

**Q.** For Nc1nc(=O)c2c([nH]1)NCC(CNc1ccc(C(=O)N[C@@H](CCC(=O)O)C(=O)O)cc1)N2C=O (mixture of isomers) [Folinic Acid, Folinic acid], which “Intracellular adenosine, Brain” value [6, 13] is on record?
**A.** 0.72 ± 0.09 nmols/mg protein

**Q.** And the “Intracellular adenosine, Heart” value [6, 13]?
**A.** 12.4 ± 2.1 nmols/mg protein

**Q.** And the “Intracellular adenosine, Liver” value [6, 13]?
**A.** 16.4 ± 2.4 nmols/mg protein

**Q.** What about the “Effect on adenosine levels when administered alone” value ([6]; all organs studied) of the same molecule?
**A.** increase in adenosine levels

**Q.** What about the “Effect of coadministration on steroid-mediated adenosine depletion” value ([6]; coadministered with DHEA or methyltestosterone) of the same molecule?
**A.** completely abrogated

**Q.** What does the source list for C[C@]12CC[C@H](O)CC1=CC[C@@H]1[C@@H]2CC[C@]2(C)C(=O)CC[C@@H]12 [DHEA, 3β-hydroxyandrost-5-en-17-one]?
**A.** Solubility in water ([7]; water): insoluble in water; Percentage of cells in G1 / S phase ([8]; 200 μM, after 24 hours): more rapid increase in the percentage of cells in G1 and a decreased proportion of cells in S phase; G2M phase cells ([8]; 25 or 50 μM, after 48 hours): transient increase; Percentage of cells in G1 phase ([8]; 25 or 50 μM, after 72 hours): increased; Cell cycle distribution ([8]; 25 or 50 μM, after the initial 24 hours): unchanged; Overall effect on cell cycle ([8]; time- and dose-dependent): G1 block; Effect on growth of HT-29 cells [9]: time- and dose-dependent inhibition of growth

**Q.** With C[C@@](O)(CCO)CC(=O)O [MVA, mevalonic acid] as the molecule, how does the “Reversal of DHEA-induced growth inhibition” value [4] read?
**A.** partially overcome

**Q.** What about the “Prevention of DHEA-induced S phase depletion” value [10] of the same molecule?
**A.** partially prevented

**Q.** For C[C@]12CCC(=O)C=C1CC[C@@H]1[C@@H]2CC[C@@]2(C)[C@H]1CC[C@]2(C)O [Methyltestosterone, methyltestosterone], which “Intracellular adenosine, Liver” value ([6]; Methyltestosterone 40 mg/kg, mean±SEM) is on record?
**A.** 16.5 ± 0.9 nmols/mg protein

**Q.** And the “Intracellular adenosine, Liver” value ([6]; Methyltestosterone 120 mg/kg, mean±SEM)?
**A.** 5.1 ± 0.5 nmols/mg protein

**Q.** What does the source list for C[C@]12CC[C@H](OS(=O)(=O)[O-])CC1=CC[C@@H]1[C@@H]2CC[C@]2(C)C(=O)CC[C@@H]12.[Na+] [DHEA-S, sodium dehydroepiandrostenone sulfate]?
**A.** Stability of nebulizer formulation ([11]; 7.5 mg/mL in 0.12% NaCl, RT): stable for at least one day; Appearance of solution on storage ([11]; 40° C.): became cloudy after two days of storage; Appearance of solution on storage ([11]; RT (24-26° C.)): slight precipitate is observed on the third day; Degradation of the drug during jet milling micronization [12]: no detectable degradation; Solubility ([7]; 0.9% NaCl, refrigerated (7-8° C.)): 1100 to 1300 µg/mL; Ksp ([7]; 15° C., interpolated): ~1316 mM^2; Solubility in hexane ([7]; hexane): insoluble; Equilibrium constant Ksp ([7]; refrigerated (7-8° C.)): 665 mM^2; Equilibrium constant Ksp ([7]; room temperature (24-25° C.)): 2236 mM^2; Solubility ([7]; ~25° C., 0% NaCl): 16500 to 17400 µg/mL

**Q.** For CC(C)CCC[C@@H](C)[C@H]1CC[C@H]2[C@@H]3CC=C4C[C@@H](O)CC[C@]4(C)[C@H]3CC[C@]12C [CH, cholesterol], which “Reversal of DHEA-induced growth inhibition” value [4] is on record?
**A.** no such effect

**Q.** And the “Prevention of DHEA-induced S phase depletion” value [10]?
**A.** very little effect
